Laboratory results from patent US20250353891A1 (MEDIMMUNE LIMITED, priority 2022, published 2025).
Starred links: 1 amine or outer side, 2 acyl side, 3 side chain; linkers in the order of their positions; H or OH if unused. Non-standard residues stand in square brackets, D forms with d. Residues, ends and D or L forms follow the SMILES beside them. Groups on a side chain read outwards from the residue. *: point of attachment. PEG12 = NCCOCCOCCOCCOCCOCCOCCOCCOCCOCCOCCOCCOCCC(=O)O; PEG8 = NCCOCCOCCOCCOCCOCCOCCOCCOCCC(=O)O; Dip = N[C@H](C(=O)O)C(c1ccccc1)c1ccccc1; γGlu = O=C(O)[C@H](CCC(=O)[*:2])N[*:1]; Stearoyl = CCCCCCCCCCCCCCCCCC(=O)*; Palmitoyl = CCCCCCCCCCCCCCCC(=O)*; αMeF = C[C@](N)(Cc1ccccc1)C(=O)O; PEG2 = NCCOCCOCCC(=O)O; Aib = CC(C)(N)C(=O)O

How the values were obtained:
[1] = target: human GLP-1 receptor (hGLP-1R) (Homo sapiens, UniProt P43220); experiment: cAMP production (HTRF) in CHO cells expressing hGLP-1R; format: cell-based; design: expressed in transfected cells; conditions: for EC50: Table 6, peptides modified at position 17, cAMP in CHO hGLP-1R cells, geometric mean, read-out: hGLP-1R EC50; for % Relative Potency Ratio: Table 6, % GLP-1R activity relative to GLP-1 / % GlucR activity relative to glucagon
Procedure, shortened: (§1)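 Potency values represent EC50 from 4-parameter logistic curves of HTRF % Delta F signal. Receptor-expressing CHO cells (hGCGR 2×10^5 cells/mL, hGLP-1R 1×10^5 cells/mL) were exposed for 30 min at room temperature before two-step cAMP detection.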

[2] = target: human glucagon receptor (hGCGR) (Homo sapiens, UniProt P47871); experiment: cAMP production (HTRF) in CHO cells expressing hGCGR; format: cell-based; design: expressed in transfected cells; conditions: Table 6, peptides modified at position 17; cAMP in CHO hGCGR cells; geometric mean; read-out: hGluc-R EC50
Procedure, shortened: as §1

human GLP-1 receptor (hGLP-1R), sequence (P43220 24-463): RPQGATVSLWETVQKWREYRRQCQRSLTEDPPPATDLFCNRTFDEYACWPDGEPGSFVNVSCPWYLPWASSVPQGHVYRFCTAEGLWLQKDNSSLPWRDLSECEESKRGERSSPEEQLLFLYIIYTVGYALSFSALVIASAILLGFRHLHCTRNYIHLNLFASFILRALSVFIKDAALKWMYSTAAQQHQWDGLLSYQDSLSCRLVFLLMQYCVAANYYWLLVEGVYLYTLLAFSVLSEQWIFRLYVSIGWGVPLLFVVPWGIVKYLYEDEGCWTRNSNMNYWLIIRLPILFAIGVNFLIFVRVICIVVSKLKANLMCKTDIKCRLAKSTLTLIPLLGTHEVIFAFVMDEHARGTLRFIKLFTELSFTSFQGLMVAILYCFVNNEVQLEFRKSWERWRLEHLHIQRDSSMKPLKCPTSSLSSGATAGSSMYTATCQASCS
human glucagon receptor (hGCGR), sequence (P47871 26-477): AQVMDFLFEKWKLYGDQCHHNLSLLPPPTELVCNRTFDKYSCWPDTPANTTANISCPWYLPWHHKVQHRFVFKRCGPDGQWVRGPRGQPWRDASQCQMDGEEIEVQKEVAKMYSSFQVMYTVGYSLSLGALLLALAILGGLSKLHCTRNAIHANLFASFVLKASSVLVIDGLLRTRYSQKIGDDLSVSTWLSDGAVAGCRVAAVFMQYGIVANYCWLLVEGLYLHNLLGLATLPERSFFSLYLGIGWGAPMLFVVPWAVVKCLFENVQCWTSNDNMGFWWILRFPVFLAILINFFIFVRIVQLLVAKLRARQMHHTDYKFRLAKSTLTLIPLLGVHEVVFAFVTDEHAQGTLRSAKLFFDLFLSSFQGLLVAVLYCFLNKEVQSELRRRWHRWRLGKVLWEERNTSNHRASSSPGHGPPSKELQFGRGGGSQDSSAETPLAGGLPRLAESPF

EC50 [1] [pM]	% Relative Potency Ratio [1]	EC50 [2] [pM]	Compound
9.09	3.7	16.9	CCCCCCCCCCCCCCCCCC(=O)N[C@@H](CCC(=O)N[C@@H](CCC(=O)NCCOCCOCCOCCOCCOCCOCCOCCOCCC(=O)NCCCC[C@H](NC(=O)[C@H](CO)NC(=O)[C@H](CC(=O)O)NC(=O)[C@H](CC(C)C)NC(=O)[C@@H](NC(=O)[C@H](CCCCN)NC(=O)[C@H](CO)NC(=O)[C@@H](NC(=O)[C@H](CC(=O)O)NC(=O)[C@H](CO)NC(=O)[C@@H](NC(=O)[C@](C)(Cc1ccccc1)NC(=O)[C@H](CO)NC(=O)CNC(=O)[C@H](CCC(N)=O)NC(=O)[C@H](CO)NC(=O)[C@@H](N)Cc1c[nH]cn1)[C@@H](C)O)C(C)C)C(c1ccccc1)c1ccccc1)C(=O)N[C@@H](C)C(=O)N[C@@H](C)C(=O)N[C@@H](CCC(N)=O)C(=O)N[C@@H](CC(=O)O)C(=O)N[C@@](C)(Cc1ccccc1)C(=O)N[C@H](C(=O)N[C@@H](CCC(=O)O)C(=O)NC(C)(C)C(=O)N[C@H](C(=O)N[C@H](C(=O)N[C@@H](CC(N)=O)C(=O)N[C@H](C(N)=O)[C@@H](C)O)[C@@H](C)CC)[C@@H](C)CC)C(C)C)C(=O)O)C(=O)O [Peptide 57] (H-HSQGS[αMeF]TSDVSK[Dip]LDSK([PEG8-γGlu-γGlu-Stearoyl])AAQD[αMeF]VE[Aib]IINT-NH2; N-terminus assumed)
3.9	5.7	11.3	CCCCCCCCCCCCCCCCCC(=O)N[C@@H](CCC(=O)N[C@@H](CCC(=O)NCCOCCOCCOCCOCCOCCOCCOCCOCCOCCOCCOCCOCCC(=O)NCCCC[C@H](NC(=O)[C@H](CO)NC(=O)[C@H](CC(=O)O)NC(=O)[C@H](CC(C)C)NC(=O)[C@@H](NC(=O)[C@H](CCCCN)NC(=O)[C@H](CO)NC(=O)[C@@H](NC(=O)[C@H](CC(=O)O)NC(=O)[C@H](CO)NC(=O)[C@@H](NC(=O)[C@](C)(Cc1ccccc1)NC(=O)[C@H](CO)NC(=O)CNC(=O)[C@H](CCC(N)=O)NC(=O)[C@H](CO)NC(=O)[C@@H](N)Cc1c[nH]cn1)[C@@H](C)O)C(C)C)C(c1ccccc1)c1ccccc1)C(=O)N[C@@H](C)C(=O)N[C@@H](C)C(=O)N[C@@H](CCC(N)=O)C(=O)N[C@@H](CC(=O)O)C(=O)N[C@@](C)(Cc1ccccc1)C(=O)N[C@H](C(=O)N[C@@H](CCC(=O)O)C(=O)NC(C)(C)C(=O)N[C@H](C(=O)N[C@H](C(=O)N[C@@H](CC(N)=O)C(=O)N[C@H](C(N)=O)[C@@H](C)O)[C@@H](C)CC)[C@@H](C)CC)C(C)C)C(=O)O)C(=O)O [Peptide 58] (H-HSQGS[αMeF]TSDVSK[Dip]LDSK([PEG12-γGlu-γGlu-Stearoyl])AAQD[αMeF]VE[Aib]IINT-NH2; N-terminus assumed)
6.18	9.1	28.4	CCCCCCCCCCCCCCCCCC(=O)NCCOCCOCCC(=O)NCCOCCOCCC(=O)N[C@@H](CCC(=O)N[C@@H](CCC(=O)NCCCC[C@H](NC(=O)[C@H](CO)NC(=O)[C@H](CC(=O)O)NC(=O)[C@H](CC(C)C)NC(=O)[C@@H](NC(=O)[C@H](CCCCN)NC(=O)[C@H](CO)NC(=O)[C@@H](NC(=O)[C@H](CC(=O)O)NC(=O)[C@H](CO)NC(=O)[C@@H](NC(=O)[C@](C)(Cc1ccccc1)NC(=O)[C@H](CO)NC(=O)CNC(=O)[C@H](CCC(N)=O)NC(=O)[C@H](CO)NC(=O)[C@@H](N)Cc1c[nH]cn1)[C@@H](C)O)C(C)C)C(c1ccccc1)c1ccccc1)C(=O)N[C@@H](C)C(=O)N[C@@H](C)C(=O)N[C@@H](CCC(N)=O)C(=O)N[C@@H](CC(=O)O)C(=O)N[C@@](C)(Cc1ccccc1)C(=O)N[C@H](C(=O)N[C@@H](CCC(=O)O)C(=O)NC(C)(C)C(=O)N[C@H](C(=O)N[C@H](C(=O)N[C@@H](CC(N)=O)C(=O)N[C@H](C(N)=O)[C@@H](C)O)[C@@H](C)CC)[C@@H](C)CC)C(C)C)C(=O)O)C(=O)O [Peptide 59] (H-HSQGS[αMeF]TSDVSK[Dip]LDSK([γGlu-γGlu-PEG2-PEG2-Stearoyl])AAQD[αMeF]VE[Aib]IINT-NH2; N-terminus assumed)
5.16	8.1	21.1	CCCCCCCCCCCCCCCCCC(=O)NCCOCCOCCC(=O)N[C@@H](CCC(=O)NCCOCCOCCC(=O)N[C@@H](CCC(=O)NCCCC[C@H](NC(=O)[C@H](CO)NC(=O)[C@H](CC(=O)O)NC(=O)[C@H](CC(C)C)NC(=O)[C@@H](NC(=O)[C@H](CCCCN)NC(=O)[C@H](CO)NC(=O)[C@@H](NC(=O)[C@H](CC(=O)O)NC(=O)[C@H](CO)NC(=O)[C@@H](NC(=O)[C@](C)(Cc1ccccc1)NC(=O)[C@H](CO)NC(=O)CNC(=O)[C@H](CCC(N)=O)NC(=O)[C@H](CO)NC(=O)[C@@H](N)Cc1c[nH]cn1)[C@@H](C)O)C(C)C)C(c1ccccc1)c1ccccc1)C(=O)N[C@@H](C)C(=O)N[C@@H](C)C(=O)N[C@@H](CCC(N)=O)C(=O)N[C@@H](CC(=O)O)C(=O)N[C@@](C)(Cc1ccccc1)C(=O)N[C@H](C(=O)N[C@@H](CCC(=O)O)C(=O)NC(C)(C)C(=O)N[C@H](C(=O)N[C@H](C(=O)N[C@@H](CC(N)=O)C(=O)N[C@H](C(N)=O)[C@@H](C)O)[C@@H](C)CC)[C@@H](C)CC)C(C)C)C(=O)O)C(=O)O [Peptide 60] (H-HSQGS[αMeF]TSDVSK[Dip]LDSK([γGlu-PEG2-γGlu-PEG2-Stearoyl])AAQD[αMeF]VE[Aib]IINT-NH2; N-terminus assumed)
4.12	4.6	9.55	CCCCCCCCCCCCCCCCCC(=O)N[C@@H](CCC(=O)NCCOCCOCCC(=O)N[C@@H](CCC(=O)NCCOCCOCCC(=O)NCCCC[C@H](NC(=O)[C@H](CO)NC(=O)[C@H](CC(=O)O)NC(=O)[C@H](CC(C)C)NC(=O)[C@@H](NC(=O)[C@H](CCCCN)NC(=O)[C@H](CO)NC(=O)[C@@H](NC(=O)[C@H](CC(=O)O)NC(=O)[C@H](CO)NC(=O)[C@@H](NC(=O)[C@](C)(Cc1ccccc1)NC(=O)[C@H](CO)NC(=O)CNC(=O)[C@H](CCC(N)=O)NC(=O)[C@H](CO)NC(=O)[C@@H](N)Cc1c[nH]cn1)[C@@H](C)O)C(C)C)C(c1ccccc1)c1ccccc1)C(=O)N[C@@H](C)C(=O)N[C@@H](C)C(=O)N[C@@H](CCC(N)=O)C(=O)N[C@@H](CC(=O)O)C(=O)N[C@@](C)(Cc1ccccc1)C(=O)N[C@H](C(=O)N[C@@H](CCC(=O)O)C(=O)NC(C)(C)C(=O)N[C@H](C(=O)N[C@H](C(=O)N[C@@H](CC(N)=O)C(=O)N[C@H](C(N)=O)[C@@H](C)O)[C@@H](C)CC)[C@@H](C)CC)C(C)C)C(=O)O)C(=O)O [Peptide 61] (H-HSQGS[αMeF]TSDVSK[Dip]LDSK([PEG2-γGlu-PEG2-γGlu-Stearoyl])AAQD[αMeF]VE[Aib]IINT-NH2; N-terminus assumed)
2.57	2.4	3.06	CCCCCCCCCCCCCCCC(=O)N[C@@H](CCC(=O)N[C@@H](CCC(=O)NCCOCCOCCC(=O)NCCOCCOCCC(=O)NCCCC[C@H](NC(=O)[C@H](CO)NC(=O)[C@H](CC(=O)O)NC(=O)[C@H](CC(C)C)NC(=O)[C@@H](NC(=O)[C@H](CCCCN)NC(=O)[C@H](CO)NC(=O)[C@@H](NC(=O)[C@H](CC(=O)O)NC(=O)[C@H](CO)NC(=O)[C@@H](NC(=O)[C@](C)(Cc1ccccc1)NC(=O)[C@H](CO)NC(=O)CNC(=O)[C@H](CCC(N)=O)NC(=O)[C@H](CO)NC(=O)[C@@H](N)Cc1c[nH]cn1)[C@@H](C)O)C(C)C)C(c1ccccc1)c1ccccc1)C(=O)N[C@@H](C)C(=O)N[C@@H](C)C(=O)N[C@@H](CCC(N)=O)C(=O)N[C@@H](CC(=O)O)C(=O)N[C@@](C)(Cc1ccccc1)C(=O)N[C@H](C(=O)N[C@@H](CCC(=O)O)C(=O)NC(C)(C)C(=O)N[C@H](C(=O)N[C@H](C(=O)N[C@@H](CC(N)=O)C(=O)N[C@H](C(N)=O)[C@@H](C)O)[C@@H](C)CC)[C@@H](C)CC)C(C)C)C(=O)O)C(=O)O [Peptide 64] (H-HSQGS[αMeF]TSDVSK[Dip]LDSK([PEG2-PEG2-γGlu-γGlu-Palmitoyl])AAQD[αMeF]VE[Aib]IINT-NH2; N-terminus assumed)
1.52	8.3	6.43	CCCCCCCCCCCCCCCCCC(=O)N[C@@H](CCC(=O)N[C@@H](CCC(=O)NCCOCCOCCC(=O)NCCOCCOCCC(=O)NCCCC[C@H](NC(=O)[C@H](CO)NC(=O)[C@H](CC(=O)O)NC(=O)[C@H](CC(C)C)NC(=O)[C@@H](NC(=O)[C@H](CCCCN)NC(=O)[C@H](CO)NC(=O)[C@@H](NC(=O)[C@H](CC(=O)O)NC(=O)[C@H](CO)NC(=O)[C@@H](NC(=O)[C@](C)(Cc1ccccc1)NC(=O)[C@H](CO)NC(=O)CNC(=O)[C@H](CCC(N)=O)NC(=O)C(C)(C)NC(=O)[C@@H](N)Cc1c[nH]cn1)[C@@H](C)O)C(C)C)C(c1ccccc1)c1ccccc1)C(=O)N[C@@H](C)C(=O)N[C@@H](C)C(=O)N[C@@H](CCC(N)=O)C(=O)N[C@@H](CC(=O)O)C(=O)N[C@@](C)(Cc1ccccc1)C(=O)N[C@H](C(=O)N[C@@H](CCC(N)=O)C(=O)NC(C)(C)C(=O)N[C@H](C(=O)N[C@@H](C)C(=O)N[C@@H](CC(N)=O)C(N)=O)[C@@H](C)CC)C(C)C)C(=O)O)C(=O)O [Peptide 66] (H-H[Aib]QGS[αMeF]TSDVSK[Dip]LDSK([PEG2-PEG2-γGlu-γGlu-Stearoyl])AAQD[αMeF]VQ[Aib]IAN-NH2; N-terminus assumed)
